# Numbered stars: 1 amine (or outer) side, 2 acyl side, 3 side chain; on linkers, the order of the positions; unused ones are H or OH. Square brackets hold non-standard residues; d marks the D form. Peptide text beside a SMILES is read from it. ξ: configuration not given here. X1 = N=C1NCC(C(O)C(N[*:1])C(=O)[*:2])N1C1OC(CO)C(O)C(O)C1O; ξEnduracididine(βξ-OH,4'ξ) = N=C1NCC(C(O)C(N)C(=O)O)N1
# Assays:
# Assay in all cases: in vitro antibacterial evaluation, MIC by broth dilution
# Format in all cases: cell-based
# Staphylococcus sp. = conditions: broth dilution, 18 hours at 35° C.
# In short: (§1)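 Step 1: dilute antibiotic across 64-0.06 μg/mL in Muller-Hinton II […]. Step 2: inoculate at 5×10^5 CFU/mL.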
# Escherichia coli = conditions: 18 hours at 35° C.
# In short: as §1
# Enterococcus sp. = conditions: broth dilution, 18 hours at 35° C.
# In short: as §1
# Streptococcus sp. = conditions: broth dilution, 18 hours at 35° C.
# In short: as §1
compound,measurement,setting,value
"N=C1NCC(C(O)C2NC(=O)C(Cc3ccc(O)cc3)NC(=O)C(Cc3ccccc3)NC(=O)CNC(=O)C(CO)NC(=O)C(C(O)C3CNC(=N)N3C3OC(CO)C(O)C(O)C3O)NC2=O)N1 (stereo not drawn) [Example 279a, Cyclo[glycylphenylalanyltyrosyl-3-(2-iminoimidazolidin-4-yl)seryl-3-(3-hexopyranosyl-2-iminoimidazolidin-4-yl)serylseryl]] (cyclo(GFY[ξEnduracididine(βξ-OH,4'ξ)][X1]S); configuration not given here)",MIC Coagulase Negative Staphylococcus (GC 4547),Staphylococcus sp.,64 µg/mL
same,MIC Coagulase Negative Staphylococcus (GC 4548),Staphylococcus sp.,>64 µg/mL
same,MIC Coagulase Negative Staphylococcus (GC 4549),Staphylococcus sp.,64 µg/mL
same,MIC Coagulase Negative Staphylococcus (GC 4551),Staphylococcus sp.,>64 µg/mL
same,MIC Coagulase Negative Staphylococcus (GC 6257),Staphylococcus sp.,64 µg/mL
same,MIC Staphylococcus aureus (ATCC 29213),Staphylococcus sp.,>64 µg/mL
same,MIC Staphylococcus aureus (GC 1131),Staphylococcus sp.,>64 µg/mL
same,MIC Staphylococcus aureus (GC 3051),Staphylococcus sp.,>64 µg/mL
same,MIC Staphylococcus aureus (GC 3053),Staphylococcus sp.,>64 µg/mL
same,MIC Staphylococcus aureus (GC 4541),Staphylococcus sp.,>64 µg/mL
same,MIC Staphylococcus aureus (GC 4542),Staphylococcus sp.,>64 µg/mL
same,MIC Staphylococcus aureus (GC 4544),Staphylococcus sp.,>64 µg/mL
same,MIC Staphylococcus aureus (GC 4545),Staphylococcus sp.,>64 µg/mL
same,MIC Staphylococcus aureus-SMITH (GC 4543),Staphylococcus sp.,>64 µg/mL
same,MIC Staphylococcus haemolyticus (GC 4546),Staphylococcus sp.,64 µg/mL
same,MIC Staphylococcus aureus (ATCC 29213),Staphylococcus sp.; strain ATCC 29213,>64 µg/mL
same,MIC Staphylococcus aureus (GC 1131),Staphylococcus sp.; strain GC 1131,>64 µg/mL
same,MIC Staphylococcus aureus (GC 3051),Staphylococcus sp.; strain GC 3051,>64 µg/mL
same,MIC Staphylococcus aureus (GC 3053),Staphylococcus sp.; strain GC 3053,>64 µg/mL
same,MIC Staphylococcus aureus (GC 4541),Staphylococcus sp.; strain GC 4541,>64 µg/mL
same,MIC Staphylococcus aureus (GC 4542),Staphylococcus sp.; strain GC 4542,>64 µg/mL
same,MIC Staphylococcus aureus (GC 4544),Staphylococcus sp.; strain GC 4544,>64 µg/mL
same,MIC Staphylococcus aureus (GC 4545),Staphylococcus sp.; strain GC 4545,>64 µg/mL
same,MIC Staphylococcus haemolyticus (GC 4546),Staphylococcus sp.; strain GC 4546,64 µg/mL
same,MIC Coagulase Negative Staphylococcus (GC 4547),Staphylococcus sp.; strain GC 4547,64 µg/mL
same,MIC Coagulase Negative Staphylococcus (GC 4548),Staphylococcus sp.; strain GC 4548,>64 µg/mL
same,MIC Coagulase Negative Staphylococcus (GC 4549),Staphylococcus sp.; strain GC 4549,64 µg/mL
same,MIC Coagulase Negative Staphylococcus (GC 4551),Staphylococcus sp.; strain GC 4551,>64 µg/mL
same,MIC Coagulase Negative Staphylococcus (GC 6257),Staphylococcus sp.; strain GC 6257,64 µg/mL
same,MIC Staphylococcus aureus-SMITH (GC 4543),Staphylococcus sp.; strain SMITH GC 4543,>64 µg/mL
same,MIC Escherichia coli (ATCC 25922),Escherichia coli; Escherichia coli (ATCC 25922),64 µg/mL
same,MIC Escherichia coli (GC 4559),Escherichia coli; Escherichia coli (GC 4559),64 µg/mL
same,MIC Escherichia coli (GC 4560),Escherichia coli; Escherichia coli (GC 4560),32 µg/mL
same,MIC Enterococcus avium (GC 4558),Enterococcus sp.; Enterococcus avium (GC 4558),>64 µg/mL
same,MIC Enterococcus faecalis (ATCC 29212),Enterococcus sp.; Enterococcus faecalis (ATCC 29212),>64 µg/mL
same,MIC Enterococcus faecalis (GC 4553),Enterococcus sp.; Enterococcus faecalis (GC 4553),>64 µg/mL
same,MIC Enterococcus faecalis (GC 4554),Enterococcus sp.; Enterococcus faecalis (GC 4554),>64 µg/mL
same,MIC Enterococcus faecalis (GC 6189),Enterococcus sp.; Enterococcus faecalis (GC 6189),>64 µg/mL
same,MIC Enterococcus faecium (GC 2243),Enterococcus sp.; Enterococcus faecium (GC 2243),>64 µg/mL
same,MIC Enterococcus faecium (GC 4556),Enterococcus sp.; Enterococcus faecium (GC 4556),>64 µg/mL
same,MIC Enterococcus faecium (GC 4557),Enterococcus sp.; Enterococcus faecium (GC 4557),64 µg/mL
same,MIC Enterococcus faecalis (ATCC 29212),Enterococcus sp.; strain ATCC 29212,>64 µg/mL
same,MIC Enterococcus faecalis (GC 2242),Enterococcus sp.; strain GC 2242,>64 µg/mL
same,MIC Enterococcus faecium (GC 2243),Enterococcus sp.; strain GC 2243,>64 µg/mL
same,MIC Enterococcus faecalis (GC 2691),Enterococcus sp.; strain GC 2691,>64 µg/mL
same,MIC Enterococcus faecalis (GC 3059),Enterococcus sp.; strain GC 3059,>64 µg/mL
same,MIC Enterococcus faecalis (GC 4552),Enterococcus sp.; strain GC 4552,>64 µg/mL
same,MIC Enterococcus faecalis (GC 4553),Enterococcus sp.; strain GC 4553,>64 µg/mL
same,MIC Enterococcus faecalis (GC 4554),Enterococcus sp.; strain GC 4554,>64 µg/mL
same,MIC Enterococcus faecium (GC 4556),Enterococcus sp.; strain GC 4556,>64 µg/mL
same,MIC Enterococcus faecium (GC 4557),Enterococcus sp.; strain GC 4557,64 µg/mL
same,MIC Enterococcus avium (GC 4558),Enterococcus sp.; strain GC 4558,>64 µg/mL
same,MIC Enterococcus faecalis (GC 6189),Enterococcus sp.; strain GC 6189,>64 µg/mL
same,MIC Streptococcus pneumoniae (ATCC 6301),Streptococcus sp.; strain ATCC 6301,64 µg/mL
same,MIC Streptococcus pneumoniae (GC 1894),Streptococcus sp.; strain GC 1894,64 µg/mL
same,MIC Streptococcus pyogenes (GC 4563),Streptococcus sp.; strain GC 4563,64 µg/mL
same,MIC Streptococcus agalactiae (GC 4564),Streptococcus sp.; strain GC 4564,>64 µg/mL
same,MIC Streptococcus pneumoniae (GC 4565),Streptococcus sp.; strain GC 4565,>64 µg/mL

# — patent US6914045B2, “Glycopeptide antibiotics” (Wyeth Holdings Corporation, priority 2001, dated 2005)
